These results are taken from article PMC11422593, “Structural and biochemical analysis of highly similar HLA-B allotypes differentially associated with type 1 diabetes” (The Journal of Biological Chemistry, 2024).

Like-named read-outs stand apart in the source and are kept apart here. No end group written: not given here. Some results are limits rather than exact numbers.

In test [1] the target is T1, HLA-B∗39:06 (Homo sapiens, UniProt P01889, A182T/A93T/A95T/C349S/D138N/D201E/E176V/E187T/E204Q/K202T/L119W/Q94N/R155S/R180L/S121T/Y140F/Y91C). The test can be described thus: biochemical. The class given is binding.
For test [2], the target named is T2, HLA-B∗38:01 (Homo sapiens, UniProt P01889, A182T/A93T/A95T/C349S/D138N/D201E/D98Y/E176V/E187T/E204Q/G107R/K202T/L105A/N104I/Q94N/R106L/R155S/R180L/S101N/S121R/Y140F/Y91C). Description: biochemical.
The next test has as its target T3, HLA-B∗39:01 (Homo sapiens, UniProt P01889, A182T/A93T/A95T/C349S/D138N/D201E/E176V/E187T/E204Q/K202T/Q94N/R155S/R180L/S121R/Y140F/Y91C).
T3 construct: made in house
The test can be described thus: biochemical. The test is classed as binding.

The target in test [3] is HLA-B∗39:06 (purified MHC molecules) (human). Description: radioligand binding.
Test [4] addresses HLA-B∗39:01 (purified MHC molecules) (human). The test can be described thus: radioligand binding.
Test [5] has as its target HLA-B∗38:01 (purified MHC molecules) (human). The test can be described thus: radioligand binding.
In test [6] the target is T1, HLA-B∗39:06. The following applies: cited from earlier work. On the procedure:
We previously reported the sequences of peptides endogenously bound to and eluted from HLA-B∗39:06 molecules purified from the human lymphoblastoid cell line C1R/HLA-B∗39:06 ([26]). […] Our strategy was based on the prior seminal observations of Ploegh et al. ([27]) that the incubation of cells at 26 °C allows for empty class I MHC molecules to reach the cell surface, and that the MHC can be stabilized if a binding peptide is also included. […] Assays to quantitatively measure peptide binding to purified B∗39:06 and B∗39:01 molecules were based on the inhibition of binding of a high-affinity radiolabeled peptide and performed as described ([26]).

In test [7] the target is T2, HLA-B∗38:01. Set-up: made in house. The following applies: read-out: IC50 of the probe peptide (HLA-B∗38:01 assay); cited from earlier work.
Test [8] addresses HLA-B∗38:01 (purified MHC molecules) (human). Description: radioligand binding; cell-free competitive assay as for B∗39:06, with purified HLA-B∗38:01 and radiolabelled … as the probe.

For the molecule TNLFLFLFAV, the IC50 turned out to be 354 nM against HLA-B∗39:06 [1], 6690 nM against HLA-B∗38:01 [2] and 3950 nM at HLA-B∗39:01.

For “NRVMLPKA (NLRP2, position 320, 8mer) (peptide)”, the values for the half-inhibitory concentration (IC50) in [3] and in test [4] were 41 nM and 85 nM, respectively.

“… (Variola virus RNA helicase 346–354) (peptide)”: in test [5], the 50% inhibitory concentration (IC50) worked out at 1.4 nM.

On to WMRLLPLLA, for which the values for the half-maximal inhibitory concentration (IC50) on HLA-B∗39:06 [1], against HLA-B∗38:01 [2] and against HLA-B∗39:01 were 155 nM, more than 50000 nM and 865 nM, respectively.

Take “… (human insulin, position 5, 9mer) (peptide)”: the IC50 was 677 nM in test [3], 14 nM in [4] and 850 nM in test [5].

With YHFLQIPT, the concentration for half-maximal inhibition (IC50) against HLA-B∗39:06 [1] amounted to 151 nM; at HLA-B∗38:01 [2], 9750 nM; on HLA-B∗39:01, 660 nM.

Regarding “MRLLPLLA (human insulin, position 5, 8mer) (peptide)”, the results for the concentration for half-maximal inhibition (IC50) in test [3], in test [4] and in [5] were 41 nM, 62 nM and 44500 nM, respectively.

For the molecule “YHFLQIPT (human G6Pase 2, position 307) (peptide)”, the IC50 came to 151 nM in test [3], 660 nM in [4] and 9750 nM in test [5].

For the molecule NRVMLPKAA, the IC50 on HLA-B∗39:06 [1] is 14 nM; against HLA-B∗38:01 [2], more than 50000 nM; at HLA-B∗39:01 it was 35 nM.

On to DHAVVVGV, for which the “rank of binding to HLA-B∗39:06 among the candidate endogenous ligands” value on HLA-B∗39:06 [6] (cell-free competitive assay, purified HLA-B∗39:06 and high-affinity radiolabeled ligand, also data not shown) is “by far the weakest HLA-B∗39:06 binder among the candidates”.

For the molecule NRVMLPKA, the IC50 at HLA-B∗39:06 [1] was 41 nM; against HLA-B∗39:01, 85 nM.

With MRLLPLLA, the concentration for half-maximal inhibition (IC50) on HLA-B∗39:06 [1] is 41 nM; at HLA-B∗38:01 [2] it was 44500 nM; against HLA-B∗39:01 it was 62 nM.

For the molecule FRLLCALTSL, the values for the IC50 at HLA-B∗39:06 [1], against HLA-B∗38:01 [2] and on HLA-B∗39:01 were 7.4 nM, 2760 nM and 290 nM, respectively.

As to “FRYQGHVGA [Homo sapiens proteasome subunit 127–135, reference compound]”, at HLA-B∗39:06 [6] (unlabeled version of the radiolabeled probe, read-out: IC50 of the probe peptide for B∗39:06), the half-maximal inhibitory concentration (IC50) is 24 nM.

As for `CC(C)C[C@H](NC(=O)[C@H](CS)NC(=O)[C@@H]1CCCN1C(=O)[C@H](CO)NC(=O)[C@H](CO)NC(=O)[C@H](Cc1c[nH]cn1)NC(=O)[C@@H](N)CC(N)=O)C(=O)N[C@@H](CCC(=O)O)C(=O)N[C@@H](CCC(N)=O)C(=O)N[C@@H](Cc1ccccc1)C(=O)O`, the values for the 50% inhibitory concentration (IC50) on HLA-B∗39:06 [1] and at HLA-B∗39:01 were more than 50000 nM and 25700 nM, respectively.

Turning to … (DDX3X, position 2) (peptide), the 50% inhibitory concentration (IC50) in test [3] was determined as 696 nM; in test [4] it was 11 nM; in test [5] it was 321 nM.

For FLFLFAVG, the concentration for half-maximal inhibition (IC50) on HLA-B∗39:06 [1] was 405 nM; on HLA-B∗38:01 [2], more than 50000 nM; on HLA-B∗39:01 it was 17900 nM.

Regarding SHLVEALYL, the IC50 was found to be 35600 nM at HLA-B∗39:06 [1], 10 nM on HLA-B∗38:01 [2] and 5250 nM on HLA-B∗39:01.

For the molecule YHIPGDTLF, the IC50 at HLA-B∗38:01 [7] was 1.4 nM.

MRLLPLLAL [MRLLPLLAL]: the IC50 against HLA-B∗39:06 [1] is 677 nM; at HLA-B∗38:01 [2], 850 nM; on HLA-B∗39:01 it was 14 nM.

For THFPHQVIL, the IC50 worked out at 2600 nM against HLA-B∗39:06 [1], 142 nM on HLA-B∗38:01 [2] and 73 nM against HLA-B∗39:01.

On to `CC(C)C[C@H](NC(=O)[C@H](C)NC(=O)[C@H](CC(N)=O)NC(=O)[C@H](CCC(=O)O)NC(=O)[C@@H](NC(=O)[C@H](C)NC(=O)[C@@H](NC(=O)[C@H](Cc1c[nH]cn1)NC(=O)[C@@H](N)CO)C(C)C)C(C)C)C(=O)O` [SHVAVENAL, reference compound], for which the concentration for half-maximal inhibition (IC50) came to 696 nM against HLA-B∗39:06 [1], 321 nM at HLA-B∗38:01 [2] and 11 nM against HLA-B∗39:01.

As for SASIPLTVVA, the IC50 against HLA-B∗39:06 [1] is 310 nM; on HLA-B∗38:01 [2], more than 50000 nM; at HLA-B∗39:01 it was 30900 nM.

As for NRVMLPKAA [… (NLRP2 320 to 328), free peptide], the half-inhibitory concentration (IC50) in [8] was more than 50000 nM; in test [3] it was 14 nM; in [4] it was 35 nM.

For the molecule SASIPLTVVA [… (human G6Pase 2, position 328)], the half-inhibitory concentration (IC50) is more than 50000 nM in test [8], 310 nM in test [3] and 30900 nM in test [4].

The molecule FRYQGHVGA (not fully specified) [… (Homo sapiens proteasome subunit 127–135)] registered an IC50 in test [3] of 24 nM.

For WMRLLPLLA [… (human insulin, position 4)], the results for the IC50 in test [8], in test [3] and in test [4] were more than 50000 nM, 155 nM and 865 nM, respectively.

For FLFLFAVG [FLFLFAVG (human G6Pase 2, position 213)], the figures for the IC50 in test [8], in test [3] and in test [4] were more than 50000 nM, 405 nM and 17900 nM, respectively.

The IC50 is the concentration at which inhibition is half-maximal.
